The test system of experiment [1] is glioma cell lines U87 and U251. The experiment can be described thus: cell viability with DS, TMZ and the combination. The following applies: Homo sapiens, U-251, TMZ 200 μM, DS 200 nM, alone or combined. In kind it is cell-based. The procedure: To investigate the ability of DS to modify the response of glioma cells to TMZ treatment, we evaluated the effects of TMZ (200 μM) alone, DS (200 nM) alone, and a combination of both TMZ and DS on the viability of the glioma cell lines U87 and U251 (Figure 5A).
The antiproliferative effect of DS on cells growing in culture was determined using the CellTiter-Blue (Promega, Madison, WI) viability assay. The mean drug concentration required to inhibit cell proliferation by 50% (IC50) compared with vehicle-treated controls was calculated using CalcuSyn Version 2.0 software (Great ShelfordCambridge, United Kingdom).

Experiment [2] concerns U87 GFP-LC3 cells. The experiment is described as follows: GFP-LC3 puncta detection (autophagy). The following applies: TMZ 125 μM, DS 100 nM, control 2%. In kind it is cell-based, human. From the text:
To investigate the effects of DS, TMZ, or the TMZ/DS combination on autophagy in glioma cells, we transfected cells with GFP-LC3 constructs in addition to various drug treatment and control treatment regimens and examined the accumulation of punctate GFP-LC3 structures using fluorescence microscopy. During autophagy, LC3-II relocalizes to the autophagosomal membranes. Thus, the accumulation of GFP-LC3 puncta provides an effective way to detect autophagosomes. In control cells, GFP-LC3 punctate structures were not detected, but large numbers of GFP-LC3 punctate structures were found in cells treated with DS or TMZ (Figure 5C). […] Strikingly, the combination of DS and TMZ further induced autophagy in up to 50% of U87 cells.
U87 GFP-LC3 cells were analyzed by using a fluorescence microscope, and the percentage of cells displaying GFP-LC3-positive puncta was quantified by counting 5 random fields in 3 independent experiments.

The test system of experiment [3] is U87 xenografts. The experiment is described as follows: U87 intracranial xenograft, DS, TMZ or DS + TMZ. The following applies: U87 xenograft-bearing nude mice, TMZ 7.5 mg/kg.
Method: Data are presented as the mean ± SD of three experiments. […] D, Kaplan–Meier survival curves comparing the treatments using log-rank tests. DS and TMZ were compared with the control group, and DS + TMZ was compared with the control group, TMZ alone, and DS alone. E, Representative H&E-stained whole brain sections at 4 weeks after treatment. […] The tissue sections were incubated with antibodies against Ki-67.
To evaluate the long-term antitumor effect of the TMZ/DS combination, we further assessed the effects of TMZ, DS, or the combination treatment on the survival rate of U87 xenograft-bearing nude mice, which indirectly reflected the survival of tumor-bearing mice relative to their tumor burden.

As usually defined, the viability is the share of living cells, or the viability signal relative to a control. Regarding `Cn1nnc2c(C(N)=O)ncn2c1=O` [TMZ, temozolomide, reference compound], the viability at 200 µM in experiment [1] was determined as 93%. Moreover, the “cells with induced autophagy (GFP-LC3 puncta)” value in experiment [2] came out at 10%. In experiment [3], the “tumor burden compared with control groups” value is given as “did not reduce the tumor burden”.

The record behind these values is paper PMC5400620, “Preclinical therapeutic efficacy of a novel blood-brain barrier-penetrant dual PI3K/mTOR inhibitor with preferential response in PI3K/PTEN mutant glioma” (Oncotarget, 2017).
